Like-named read-outs stand apart in the source and are kept apart here.
Legend:
[1] = test system: p16(Ink4a) expression in adipose tissue macrophages; assay: Poly(I:C) in chronologically aged p16Ink4a/Luc mice; assay type: in vivo, mouse
Method: Given that macrophages contribute to the elevated p16(Ink4a) expression observed in aged mice, we investigated whether this expression was susceptible to immunomodulatory regulation. Chronologically aged mice (83-weeks old) were treated with Poly(I:C) and the luminescence of individual organs was quantitated via IVIS. […] Thus, the observed decrease in the luciferase signal in adipose tissue upon treatment with Poly(I:C) was not accompanied by the depletion of macrophages.

[2] = test system: mLF primary lung fibroblasts; assay: Anti-senescent cytotoxicity, senescent vs proliferating mLF; assay type: cell-based, Mouse; settings: for IC50: Mus musculus, Primary lung fibroblast
Method: For generation senescent human neonatal dermal fibroblasts (NDFs) and adult rat dermal fibroblasts (RDFs), cells are treated at ˜10 ug/ml bleomycin for 3 days (for bleomycin-induced senescence) or irradiated once at 20 Gy using a gamma irradiator (Cs source), followed by at least 7 day recovery in fresh medium for induction of senescence. Senescent and non-senescent (proliferating) cells for each cell line are plated into 384-w plate, followed by 72 hour exposure to a dose titration of compounds. Viability measurements are estimated using the resazurin viability assay. Using GraphPad Prism 5, the IC50 values are calculated from the non-linear regression of log-transformed compound concentrations versus dose-response normalized to background and non-treated controls.
Anti-senescent selectivity is observed in primary human dermal fibroblasts (NDFs) induced to senescence via genotoxic stress, oxidative stress and replicative stress. In addition, human, rat and mouse cells senesced via bleomycin and irradiation all show sensitivity towards A1.1 treatment compared to A1.1-treated naïve cell controls.

[3] = test system: RWPE-1 normal prostate epithelial cells; assay: dnPTEN-induced senescence model in RWPE-1 cells (SA-beta-Gal and methylene blue staining); assay type: cell-based; settings: 10 uM for 72 hours
Method: FIG. 3. Activity of A1.1 and analog A1.12 in a model of dnPTEN-induced senescence in RWPE-1 normal prostate epithelial cells. A population of transduced RWPE-1 cells containing doxycycline-inducible dnPTEN was senesced via 1 ug/ml doxycycline for 7 days. Cells which bypass senescence continued to proliferate to form a confluent monolayer. The mixed population of senescent and proliferating cells was treated with A1.1 and A1.12 at 10 uM for 72 hours. SA-beta-Gal staining was used to monitor the amount of senescent cells of treatment groups compared to non-treated control. In addition, methylene blue was used to quantitate overall cell mass, which was comprised mostly of the non-senescent, proliferating cells. Treatment with the anti-senescent compounds led to a substantial decrease in SA-beta-Gal staining, while the amount of methylene blue staining was less affected.
Senescent cells are strongly associated with benign prostate hyperplasia (BPH) and the development of prostate cancer [Vital, P. et al. (2014) The Senescence-Associated Secretory Phenotype Promotes Benign Prostatic Hyperplasia. Am J Pathol, 184(3): 721-731; Burton, D. et al. (2013). Androgen Deprivation-Induced Senescence Promoted Outgrowth of Anderogen-Refractory Protstate Cancer Cells. PLOS One, 8(6):e68003]. […] We sought to evaluate the efficacy of our compounds in a model of RWPE-1 normal prostate epithelial cells transduced with a construct for inducible loss of PTEN function [doxycycline-inducible expression of a dominant-negative PTEN (dnPTEN) mutant]. In the presence of doxycycline, a fraction of the population of transduced cells became senescent, while cells bypassing senescence continued to grow until a confluent monolayer was formed.

[4] = test system: human neonatal dermal fibroblasts (NDF); assay: Resazurin viability assay, senescent vs proliferating/quiescent human neonatal dermal fibroblasts; assay type: cell-based; settings: for IC50: Homo sapiens, Fibroblast
[5] = test system: AdMSC primary adipose-derived mesenchymal stromal cells; assay: Anti-senescent cytotoxicity, senescent vs proliferating AdMSC; assay type: cell-based, Human; settings: for IC50: Homo sapiens
[6] = test system: A549 lung adenocarcinoma cells; assay: Anti-senescent cytotoxicity, senescent vs proliferating A549; assay type: cell-based, Human; settings: for IC50: Homo sapiens
[7] = test system: mSQ primary adipose-derived mesenchymal stromal cells; assay: Anti-senescent cytotoxicity, senescent vs proliferating mSQ; assay type: cell-based, Mouse; settings: for IC50: Mus musculus
NF-κB = NF-κB luciferase reporter in HT1080 cells; assay type: cell-based; settings: HT1080 cells carrying IPTG-inducible p21

Question: How did the “luminescence of other tissues (spleen, lungs, kidney, liver)” value ([1]; 83-weeks old mice) turn out when Poly(I:C) was run?
Answer: The value was “no significant effects”.

Question: What about the “reduction in luminescence from visceral adipose tissue” value ([1]; 83-weeks old mice, IVIS of organs) of the same compound?
Answer: The value was roughly 4 fold.

Question: And the “luciferase activity from isolated stromal vascular fraction vs saline” value ([1]; per cell or per gram of fat)?
Answer: Its value is “significantly decreased”.

Question: Which results are given for `CCOC(=O)c1sc(SCc2ccccc2)c2c1CC(c1ccc(OC)cc1)C/C2=N\O` (centres unmarked) [Example A1.1]?
Answer: IC50 ([2]; light or radiation study, mLF, senescence induction: Irradiation, read-out: Activity against Senescent Cells (IC50; uM)): 4 µM; IC50 ([2]; mLF proliferating, read-out: Activity against Proliferating Cells (IC50; uM)): 10.6 µM; IC50 ([2]; mLF, senescence induction: Bleomycin, read-out: Activity against Senescent Cells (IC50; uM)): 7.1 µM; Selectivity (Prolif/Sen) ([2]; mLF, Bleomycin): 1.5; Selectivity (Prolif/Sen) ([2]; mLF, Irradiation): 2.7; proliferating cells / overall cell mass (methylene blue staining) [3]: inhibit growth of proliferating cells; senescent cells (number of SA-β-Gal-positive cells) ([3]; dnPTEN-induced senescence): selective elimination of senescent cells; sensitivity of senescent vs acutely damaged or proliferating NDF cells ([4]; 1.875-30 μM, 72 hours, bleomycin or 15 Gy senescent vs 4 Gy acutely damaged): greater sensitivity; IC50 ([4]; NDF proliferating, read-out: Activity against Proliferating Cells (IC50; uM)): 18.7 µM; IC50 ([4]; NDF, senescence induction: Bleomycin, read-out: Activity against Senescent Cells (IC50; uM)): 3.5 µM; IC50 ([4]; NDF, senescence induction: Busulfan, read-out: Activity against Senescent Cells (IC50; uM)): 3.6 µM; IC50 ([4]; NDF, senescence induction: Doxorubicin, read-out: Activity against Senescent Cells (IC50; uM)): 5.1 µM; IC50 ([4]; NDF, senescence induction: Etoposide, read-out: Activity against Senescent Cells (IC50; uM)): 3.8 µM; IC50 ([4]; NDF, senescence induction: H2O2, read-out: Activity against Senescent Cells (IC50; uM)): 3.2 µM; IC50 ([4]; NDF, senescence induction: H-Ras, read-out: Activity against Senescent Cells (IC50; uM)): 8.9 µM; IC50 ([4]; NDF, senescence induction: Replicative (late passage), read-out: Activity against Senescent Cells (IC50; uM)): 10.5 µM; IC50 ([4]; light or radiation study, NDF, senescence induction: Irradiation, read-out: Activity against Senescent Cells (IC50; uM)): 6.5 µM; Selectivity (Prolif/Sen) ([4]; NDF, Busulfan): 5.3; Selectivity (Prolif/Sen) ([4]; NDF, Doxorubicin): 3.7; Selectivity (Prolif/Sen) ([4]; NDF, Etoposide): 4.9; Selectivity (Prolif/Sen) ([4]; NDF, H2O2): 5.9; Selectivity (Prolif/Sen) ([4]; NDF, H-Ras): 2.1; Selectivity (Prolif/Sen) ([4]; NDF, Replicative (late passage)): 1.8; number of viable senescent NDF cells ([4]; concentrations as low as 2.5 μM, doxorubicin-, bleomycin- and gamma-irradiation-induced senescence, 72 hours): significantly reduced; Selectivity (Prolif/Sen) ([5]; AdMSC, Bleomycin): 2.3; IC50 ([5]; AdMSC proliferating, read-out: Activity against Proliferating Cells (IC50; uM)): 12.6 µM; IC50 ([5]; AdMSC, senescence induction: Bleomycin, read-out: Activity against Senescent Cells (IC50; uM)): 5.6 µM; Selectivity (Prolif/Sen) ([6]; A549, Bleomycin): 3.7; Selectivity (Prolif/Sen) ([6]; A549, Irradiation): 4.5; IC50 ([6]; light or radiation study, A549, senescence induction: Irradiation, read-out: Activity against Senescent Cells (IC50; uM)): 3.7 µM; IC50 ([6]; A549, senescence induction: Bleomycin, read-out: Activity against Senescent Cells (IC50; uM)): 4.5 µM; IC50 ([6]; A549 proliferating, read-out: Activity against Proliferating Cells (IC50; uM)): 16.5 µM; IC50 ([7]; light or radiation study, mSQ, senescence induction: Irradiation, read-out: Activity against Senescent Cells (IC50; uM)): 9.9 µM; IC50 ([7]; mSQ proliferating, read-out: Activity against Proliferating Cells (IC50; uM)): 14.7 µM; IC50 ([7]; mSQ, senescence induction: Bleomycin, read-out: Activity against Senescent Cells (IC50; uM)): 6.7 µM; Selectivity (Prolif/Sen) ([7]; mSQ, Bleomycin): 2.2; Selectivity (Prolif/Sen) ([7]; mSQ, Irradiation): 1.5

Question: `O=C(NCCCc1cn[nH]c1)c1ccc(-c2ccncc2)c(C#Cc2ccc(F)cc2)c1` [OT-82] was tested. Which “basal and inducible activity of NF-κB” value (NF-κB) did it give?
Answer: The value was “inhibits both basal and inducible activity”.

From US20200123127A1, “REMOVAL OF SENESCENCE-ASSOCIATED MACROPHAGES” (EVERON BIOSCIENCES, INC., priority 2016, published 2020)
